# From patent US12503479B2, “Phospholipid-flavagline conjugates and methods of using the same for targeted cancer therapy” (Cellectar Biosciences, Inc., priority 2018, dated 2025)
# pIC50: −log10 of the molar value. Like-named read-outs stand apart in the source and are kept apart here.
# How the values were obtained:
# A375 and A549 cells = assay: Levels of FLV3 in cell lysate and growth media (LC/MS); format: cell-based, human
# Protocol: FIG. 11 is a graph of concentration versus time for FLV3 detected in the cytosol (normalized to the cytosolic volume) in A375 (human melanoma) and A549 (human lung adenocarcinoma) cell lines.
# The levels of FLV3 in cell lysate and growth media were measured using LC/MS. […] Levels of intracellular FLV3 appeared to plateau at 24 hours, while extracellular levels of FLV3 continued to increase.
# [1] = system: HCT 116 (human colon cancer); assay: IC50 in cell lines: HCT 116; format: cell-based; conditions: HCT-116, read-out: IC50, HCT 116
# [2] = format: in vivo, mice
# Protocol: Listed in Table 5 are the doses administered to the mice, and how many mice were alive after treatment (“3/3” indicates 3 out of 3 mice were alive). […] MTD for CLR 1865 was between 5 and 10 mg/kg.
# [3] = system: NHDF (normal human dermal fibroblasts); assay: cells; format: cell-based
# [4] = system: A549 (human lung adenocarcinoma) cells; assay: Cytotoxicity of parent compound versus PDC, tumor cells (Example 8); format: cell-based; conditions: increasing concentrations; FIG. 3
# Protocol: A549 (human lung adenocarcinoma) cells and normal human dermal fibroblasts (NHDF) were plated in 96 well dishes overnight. […] The difference between the cytotoxicity of the PDC molecule for tumor cells and that of the normal cells may have indicated a potential to improve the parent molecules therapeutic index.
# [5] = system: A549 (human lung adenocarcinoma); assay: cells; format: cell-based; conditions: Homo sapiens, A549, read-out: IC50, A549
# [6] = system: A375 (human malignant melanoma); assay: IC50 in cell lines: A375; format: cell-based; conditions: A-375, read-out: IC50, A375
# [7] = system: PC3 (grade IV, human prostate adenocarcinoma) cell lines; conditions: 5 μM, 24 hours at 37° C.
# Protocol: PC3 (grade IV, human prostate adenocarcinoma) cell lines were cultured overnight on micro slide VI (Ibidi, Verona, WI). […] The next day after washing with PBS, the cells were co-stained with nucleus stain (Hoechst 33342) and mitochondria marker (Mitotracker®) (Invitrogen, Carlsbad, CA). The cells were observed using Nikon A1R confocal microscope. CLR 1501 was excited and detected using Alexa-Fluor 488 filter, while nucleus stain and mitochondria stain were excited and detected using DAPI filter and Texas-Red filter, respectively.
# benign tissues = conditions: in vivo
# Normal fibroblast = conditions: 5 μM, 24 hours at 37° C., co-culture with Caki-2 tumor cells
# Protocol: (§1) Normal fibroblast and Caki-2 tumor cells (human clear cell renal cell carcinoma) were plated and co-cultured overnight (FIG. 1F). […] The next day cells were washed and co-stained with nucleus stain (Hoescht 33342). CLR 1501 was excited and then detected with an Alexa-Fluor 488 filter.
# [8] = system: Caki-2 tumor cells (human clear cell renal cell carcinoma); conditions: 5 μM, 24 hours at 37° C., co-culture with normal fibroblast
# Protocol: as §1
# A549 cells = A549 cells treated with methyl b-cyclodextrin compared to untreated cells; 5 μμM, 24 hours
# myeloma cell lines = conditions: FIG. 6
# From the text: (§2) Various cancer cell lines were exposed in vitro and in vivo to a fluorescently labelled PLE (CLR 1501, compound (1)).
# Mammary AC = conditions: Apc^Min/+ mouse, Adenocarcinoma
# From the text: as §2
# Retinoblastoma = conditions: Endogenous Mouse, Blastoma
# From the text: as §2
# Breast MCF-7 = conditions: Rat, Adenocarcinoma
# From the text: as §2
# Glioma L9 = conditions: Rat xenograft
# From the text: as §2
# Pancreatic BXPC3 = conditions: Nude Mouse, Adenocarcinoma
# From the text: as §2
# Glioma RG2 = conditions: Rat xenograft
# From the text: as §2
# Prostate LuCap = conditions: Mouse, Adenocarcinoma
# From the text: as §2
# Prostate PC-3 = conditions: SCID Mouse, Adenocarcinoma
# From the text: as §2
# Walker-256 = conditions: Rat, Carcinosarcoma
# From the text: as §2
# Esophageal = conditions: Endogenous Mouse, Adenocarcinoma
# From the text: as §2
# Colon CT-26 = conditions: SCID Mouse, Adenocarcinoma
# From the text: as §2
# Colon HT-29 = conditions: SCID Mouse, Colorectal adenocarcinoma
# From the text: as §2
# Breast 4T1 = conditions: Endogenous Mouse (orthotopic), Adenocarcinoma
# From the text: as §2
# [9] = system: Various cancer cell lines; conditions: in vitro and in vivo; uptake measured continuously for 24 hours
# From the text: as §2
# Cervical = conditions: Endogenous Mouse, Adenocarcinoma
# From the text: as §2
# SCC6 = conditions: Nude Mouse
# From the text: as §2
# Prostate MatLyLu = conditions: Rat, Adenocarcinoma
# From the text: as §2
# Min Mouse Intestinal = conditions: Endogenous Mouse, Adenocarcinoma
# From the text: as §2
# Hepatocellular Carcinoma = conditions: Endogenous Mouse, Adenocarcinoma
# From the text: as §2
# Glioma C6 = conditions: Rat xenograft
# From the text: as §2
# TRAMP prostate = conditions: Endogenous Mouse, Adenocarcinoma
# From the text: as §2
# Melanoma A-375 = conditions: Nude Mouse
# From the text: as §2
# Pancreatic Capan-1 = conditions: Nude Mouse, Adenocarcinoma
# From the text: as §2
# Mammary SCC = conditions: Apc^Min/+ mouse, Squamous cell carcinoma
# From the text: as §2
# Glioma CNS1 = conditions: Rat xenograft
# From the text: as §2
# Adrenal RL-251 = conditions: SCID Mouse, Adenocarcinoma
# From the text: as §2
# Pancreatic c-myc = conditions: Endogenous Mouse, Adenocarcinoma
# From the text: as §2
# Renal Cell ACHN = conditions: Nude Mouse (orthotopic), Adenocarcinoma
# From the text: as §2
# Colon DLDI = conditions: SCID Mouse, Colorectal adenocarcinoma
# From the text: as §2
# Sarcoma (Meth-A) = conditions: Nude Mouse, Fibrosarcoma
# From the text: as §2
# Prostate LnCap = conditions: Mouse, Adenocarcinoma
# From the text: as §2
# Melanoma = conditions: Mouse, Adenocarcinoma
# From the text: as §2
# Lung A-549 (NSCLC) = conditions: SCID Mouse, Adenocarcinoma
# From the text: as §2
# Lung NCI H-69 (Oat Cell) = conditions: SCID Mouse
# From the text: as §2
# Pancreatic Kras = conditions: Endogenous Mouse, Adenocarcinoma
# From the text: as §2
# Adrenal H-295 = conditions: SCID Mouse, Adenocarcinoma
# From the text: as §2
# Colon-51 = conditions: SCID Mouse, Colorectal adenocarcinoma
# From the text: as §2
# Ovarian HTB-77 = conditions: Nude Mouse, Adenocarcinoma
# From the text: as §2
# Colon LS-180 = conditions: Nude Mouse, Adenocarcinoma
# From the text: as §2
# SCC1 = conditions: Nude Mouse, Squamous cell carcinoma
# From the text: as §2
# Renal Cell Caki-2 = conditions: Nude Mouse (orthotopic), Adenocarcinoma
# From the text: as §2
# [10] = system: cancer stem cells, normal brain tissue, and normal stem cells; conditions: FIG. 7
# From the text: as §2
# ColonLS180 = conditions: SCID Mouse, Colorectal adenocarcinoma
# From the text: as §2
# Intestinal Polyp = assay: Uptake in benign tissues: Intestinal Polyp; format: in vivo; conditions: Endogenous Mouse, Adenoma (benign)
# [11] = system: Mammary alveolar hyperplasia; assay: Uptake in benign tissues: Mammary alveolar hyperplasia; format: in vivo; conditions: Endogenous Mouse
smiles,measurement,setting,value
"COC(=O)[C@@H]1[C@H](O)[C@]2(O)c3c(OC)cc(OCCCCN)cc3O[C@]2(c2ccc(OC)cc2)[C@H]1c1ccccc1 [FLV3, reference compound]",Time at which levels of intracellular FLV3 plateau,A375 and A549 cells,24 h
same,Levels of FLV3 in the growth media,A375 and A549 cells; after 24 hours,Moderate levels
same,Levels of FLV3 in the cell lysate,"A375 and A549 cells; after 24 hours, FIG. 11",high levels
same,pIC50,[1],8.05
same,Mice alive after treatment,[2]; Dose 0.1 mg/kg,3/3
same,Mice alive after treatment,[2]; Dose 0.25 mg/kg,3/3
same,pIC50,"[3]; Homo sapiens, NHDF, read-out: IC50, NHDF",8.10
same,Therapeutic Index (TI),"[3]; not defined, equals NHDF IC50 over lowest tumor line IC50",0.89
same,Cytotoxic potency to A549 cells versus NHDF cells (selectivity),[4],near equal potency to the A549 cells as it did to the NHDF cells
same,pIC50,[5],7.05
same,pIC50,[6],7.82
C[N+](C)(C)CCOP(=O)([O-])OCCCCCCCCCCCCCCCCCCc1ccc(C2=C3C=CC=[N+]3[B-](F)(F)n3cccc32)cc1 [CLR 1501],Co-localization with mitochondria,[7],co-localized with mitochondria
same,Uptake in benign tissues,benign tissues,no uptake was observed
same,Localization in normal fibroblast cells,Normal fibroblast,minimally
same,Localization in Caki-2 cells,[8],highly localized
same,Reduction in uptake after disruption of lipid rafts,A549 cells,60%
same,"Uptake, myeloma cell lines",myeloma cell lines,uptake
same,Tumor Uptake,Mammary AC,Yes
same,Tumor Uptake,Retinoblastoma,Yes
same,Tumor Uptake,Breast MCF-7,Yes
same,Tumor Uptake,Glioma L9,Yes
same,Tumor Uptake,Pancreatic BXPC3,Yes
same,Tumor Uptake,Glioma RG2,Yes
same,Tumor Uptake,Prostate LuCap,Yes
same,Tumor Uptake,Prostate PC-3,Yes
same,Tumor Uptake,Walker-256,Yes
same,Tumor Uptake,Esophageal,Yes
same,Tumor Uptake,Colon CT-26,Yes
same,Tumor Uptake,Colon HT-29,Yes
same,Tumor Uptake,Breast 4T1,Yes
same,Specificity for tumors and cancer cells,[9],specific for tumors and cancer cells
same,Tumor Uptake,Cervical,Yes
same,Tumor Uptake,SCC6,Yes
same,Tumor Uptake,Prostate MatLyLu,Yes
same,Tumor Uptake,Min Mouse Intestinal,Yes
same,Tumor Uptake,Hepatocellular Carcinoma,Yes
same,Tumor Uptake,Glioma C6,Yes
same,Tumor Uptake,TRAMP prostate,Yes
same,Tumor Uptake,Melanoma A-375,Yes
same,Tumor Uptake,Pancreatic Capan-1,Yes
same,Tumor Uptake,Mammary SCC,Yes
same,Tumor Uptake,Glioma CNS1,Yes
same,Tumor Uptake,Adrenal RL-251,Yes
same,Tumor Uptake,Pancreatic c-myc,Yes
same,Tumor Uptake,Renal Cell ACHN,Yes
same,Tumor Uptake,Colon DLDI,Yes
same,Tumor Uptake,Sarcoma (Meth-A),Yes
same,Tumor Uptake,Prostate LnCap,Yes
same,Tumor Uptake,Melanoma,Yes
same,Tumor Uptake,Lung A-549 (NSCLC),Yes
same,Tumor Uptake,Lung NCI H-69 (Oat Cell),Yes
same,Tumor Uptake,Pancreatic Kras,Yes
same,Tumor Uptake,Adrenal H-295,Yes
same,Tumor Uptake,Colon-51,Yes
same,Tumor Uptake,Ovarian HTB-77,Yes
same,Tumor Uptake,Colon LS-180,Yes
same,Tumor Uptake,SCC1,Yes
same,Tumor Uptake,Renal Cell Caki-2,Yes
same,Uptake into cancer cells versus normal brain tissue and normal stem cells,[10],specific uptake
same,Tumor Uptake,ColonLS180,Yes
C[N+](C)(C)CCOP(=O)([O-])OCCCCCCCCCCCCCCCCCCc1ccc(I)cc1 [CLR1404],Tumor Uptake,Intestinal Polyp,No
same,Tumor Uptake,[11],No
